“And” between values parts separate entries of the source, which are not always exact repeats. Equal values may be shown once. Toxic doses and inconclusive results are not listed. The calls were made as follows: active = survival T/C of 150% or more; inactive = T/C below 125% in these data.
Test system: P388 leukemia ip, CD2F1 mice, survival T/C
Test: NCI In Vivo Anticancer Drug Screen. Data for tumor model P388 Leukemia (intraperitoneal) in CD2F1 (CDF1) mice
Conditions: endpoint: median survival time, higher = longer survival
Summary of the method: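 Mice carrying the transplanted tumor received test compound or vehicle. Survival was recorded in each group, and the value is the treated-group measurement divided by that of the vehicle-treated control group.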

[1] = dose: 25.0 mg/kg/injection, schedule: Q01DX009 (ip), vehicle: saline with Tween-80
[2] = dose: 50.0 mg/kg/injection, schedule: Q01DX009 (ip), vehicle: saline with Tween-80
[3] = dose: 100.0 mg/kg/injection, schedule: Q01DX009 (ip), vehicle: saline with Tween-80
[4] = dose: 200.0 mg/kg/injection, schedule: Q01DX009 (ip), vehicle: saline with Tween-80
[5] = dose: 50.0 mg/kg/injection, schedule: Q01DX005 (ip), vehicle: Klucel (hydroxypropylcellulose) (HPC)
[6] = dose: 100.0 mg/kg/injection, schedule: Q01DX005 (ip), vehicle: Klucel (hydroxypropylcellulose) (HPC)
[7] = dose: 200.0 mg/kg/injection, schedule: Q01DX005 (ip), vehicle: Klucel (hydroxypropylcellulose) (HPC)

Measured: T/C

CCN(CC)c1nc(N(CC)CC)nc(N(CC)CC)n1
inactive: [1] 102 % of control | [2] 104 % of control | [3] 104 % of control | [4] 104 % of control

CC#CC(=O)OC
inactive: [2] 94 % of control | [3] 101 % of control | [4] 98 % of control | dose: 400.0 mg/kg/injection, schedule: Q01DX009 (ip), vehicle: saline with Tween-80 98 % of control

COc1ccc(CSC(=S)Nc2ccc(Cl)c(C)c2)cc1
inactive: dose: 50.0 mg/kg/injection, schedule: Q01DX009 (ip), vehicle: suspension in saline 111 % of control | dose: 100.0 mg/kg/injection, schedule: Q01DX009 (ip), vehicle: suspension in saline 109 % of control | dose: 200.0 mg/kg/injection, schedule: Q01DX009 (ip), vehicle: suspension in saline 106 % of control

CC(C)C1=CC23CCC4C(C)(C(=O)O)CCCC4(C)C2CC1C(C(=O)NCCCN(C)C)C3C(=O)O (stereo not given)
inactive: dose: 60.0 mg/kg/injection, schedule: Q01DX005 (ip), vehicle: Klucel (hydroxypropylcellulose) (HPC) 95 % of control | dose: 120.0 mg/kg/injection, schedule: Q01DX005 (ip), vehicle: Klucel (hydroxypropylcellulose) (HPC) 95 % of control | dose: 240.0 mg/kg/injection, schedule: Q01DX005 (ip), vehicle: Klucel (hydroxypropylcellulose) (HPC) 93 % of control

COc1ccc2c(C)cc(OC)nc2c1
inactive: [2] 94 % of control | [3] 91 % of control | [4] 97 % of control

COc1ccccc1N=Nc1cc(S(=O)(=O)O)c2ccccc2c1O
inactive: dose: 25.0 mg/kg/injection, schedule: Q01DX009 (ip), vehicle: saline 89 % of control | dose: 50.0 mg/kg/injection, schedule: Q01DX009 (ip), vehicle: saline 97 % of control | dose: 100.0 mg/kg/injection, schedule: Q01DX009 (ip), vehicle: saline 100 % of control and 117 % of control | dose: 200.0 mg/kg/injection, schedule: Q01DX009 (ip), vehicle: saline 91 % of control

COc1cc2c(c(OC)c1OC)-c1ccc(S(C)(=O)=O)c(=O)cc1[C@@H](NC(C)=O)CC2
inactive: dose: 0.78 mg/kg/injection, schedule: Q01DX009 (ip), vehicle: Klucel (hydroxypropylcellulose) (HPC) 105 % of control and 106 % of control | dose: 1.56 mg/kg/injection, schedule: Q01DX009 (ip), vehicle: Klucel (hydroxypropylcellulose) (HPC) 105 % of control and 120 % of control | dose: 3.12 mg/kg/injection, schedule: Q01DX009 (ip), vehicle: Klucel (hydroxypropylcellulose) (HPC) 106 % of control and 111 % of control | dose: 6.25 mg/kg/injection, schedule: Q01DX009 (ip), vehicle: Klucel (hydroxypropylcellulose) (HPC) 115 % of control | dose: 12.5 mg/kg/injection, schedule: Q01DX009 (ip), vehicle: Klucel (hydroxypropylcellulose) (HPC) 105 % of control and 122 % of control | dose: 25.0 mg/kg/injection, schedule: Q01DX009 (ip), vehicle: Klucel (hydroxypropylcellulose) (HPC) 108 % of control

Cc1cc(C(=O)O)nn1-c1ccc(S(=O)(=O)N2CCC(=O)N(C3CCCCC3)C2=S)cc1
inactive: dose: 50.0 mg/kg/injection, schedule: Q01DX005 (ip), vehicle: saline with Tween-80 95 % of control | dose: 100.0 mg/kg/injection, schedule: Q01DX005 (ip), vehicle: saline with Tween-80 101 % of control | dose: 200.0 mg/kg/injection, schedule: Q01DX005 (ip), vehicle: saline with Tween-80 101 % of control

CCCCCCCCC1OCN2CCCCC12 (stereo not given)
inactive: dose: 50.0 mg/kg/injection, schedule: Q01DX005 (ip), vehicle: saline 108 % of control | dose: 100.0 mg/kg/injection, schedule: Q01DX005 (ip), vehicle: saline 102 % of control | dose: 200.0 mg/kg/injection, schedule: Q01DX005 (ip), vehicle: saline 100 % of control

CSC(=S)N/N=C/c1ccccn1
inactive: dose: 12.5 mg/kg/injection, schedule: Q01DX009 (ip), vehicle: saline with Tween-80 100 % of control | [1] 104 % of control and 109 % of control | [2] 113 % of control

COc1c(C)cc(Cc2ccc3c(c2)OCO3)cc1C
inactive: [5] 109 % of control | [6] 109 % of control | [7] 113 % of control

NNC1=NCCS1
inactive: dose: 0.31 mg/kg/injection, schedule: Q01DX009 (ip), vehicle: saline with Tween-80 101 % of control | dose: 0.62 mg/kg/injection, schedule: Q01DX009 (ip), vehicle: saline with Tween-80 98 % of control | dose: 1.25 mg/kg/injection, schedule: Q01DX009 (ip), vehicle: saline with Tween-80 104 % of control

COc1cccc(C2Nc3ccccc3C(=O)N2N2CCOCC2)c1 (stereo not given)
inactive: [5] 100 % of control | [6] 94 % of control | [7] 96 % of control

Reference: PubChem BioAssay AID330 (DTP/NCI, 2004)
